Patent publication US10906889B2, “Polycyclic inhibitors of cyclin-dependent kinase 7 (CDK7)” (Dana-Farber Cancer Institute, Inc., priority 2013, dated 2021)
Like-named read-outs stand apart in the source and are kept apart here. Blank lines part the entries; values can stand above or below the compound they belong to.

Experiments:
CDK2 = biological target: T1, CDK2 (Homo sapiens, UniProt P24941); test: Z'-Lyte kinase assay (Life Technologies), CDK2; type: biochemical; details: Table 2; co-factor cyclin A; read-out: CDK2 (calculated IC50)
T1 construct: purchased Life Technologies (assay service)

CDK5/p25 = CDK5/p25 (Homo sapiens, UniProt Q00535); test: Z'-Lyte kinase assay (Life Technologies), CDK5/p25
CDK8 = biological target: T2, CDK8 (Homo sapiens, UniProt P49336); test: LanthaScreen Eu kinase assay (Life Technologies), CDK8; type: binding; details: Table 2; co-factor cyclin C; read-out: CDK8 (calculated IC50)
T2 construct: purchased Life Technologies (assay service)

CDK9/cyclin K = CDK9/cyclin K (Homo sapiens, UniProt P50750); test: LanthaScreen Eu kinase assay (Life Technologies), CDK9/cyclin K
CDK9/cyclin T1 = CDK9/cyclin T1 (Homo sapiens, UniProt P50750); test: Adapta kinase assay (Life Technologies), CDK9/cyclin T1
CDK7 = biological target: T3, CDK7 (Homo sapiens, UniProt P50613); test: Adapta kinase assay (Life Technologies), CDK7; type: biochemical
T3 construct: purchased Life Technologies (assay service)

MV4-11 = test: Cell proliferation (CellTiter-Glo, 72 hour), MV4-11; type: cell-based; details: Homo sapiens, blood cancer cell line, read-out: MV4-11 inhibition of proliferation (IC50)
143B = test: Cell proliferation (CellTiter-Glo, 72 hour), 143B; type: cell-based; details: Homo sapiens, osteosarcoma cell line, read-out: 143B inhibition of proliferation (IC50)
RS4-11 = test: Cell proliferation (CellTiter-Glo, 72 hour), RS4-11; type: cell-based; details: Homo sapiens, blood cancer cell line, read-out: RS4-11 inhibition of proliferation (IC50)
MCF7 = test: Cell proliferation (CellTiter-Glo, 72 hour), MCF7; type: cell-based; details: Homo sapiens, breast cancer cell line, read-out: MCF7 inhibition of proliferation (IC50)
T47D = test: Cell proliferation (CellTiter-Glo, 72 hour), T47D; type: cell-based; details: Homo sapiens, breast cancer cell line, read-out: T47D inhibition of proliferation (IC50)
MDA-MB231 = test: Cell proliferation (CellTiter-Glo, 72 hour), MDA-MB231; type: cell-based; details: Homo sapiens, MDA-MB-231, breast cancer cell line, read-out: MDA-MB231 inhibition of proliferation (IC50)
HL60 = test: Cell proliferation (CellTiter-Glo, 72 hour), HL60; type: cell-based; details: Homo sapiens, HL-60, blood cancer cell line, read-out: HL60 inhibition of proliferation (IC50)
SAOS = test: Cell proliferation (CellTiter-Glo, 72 hour), SAOS; type: cell-based; details: osteosarcoma cell line, read-out: SAOS inhibition of proliferation (IC50)
Hs822T = test: Cell proliferation (CellTiter-Glo, 72 hour), Hs822T; type: cell-based; details: Ewing's sarcoma cell line, read-out: Hs822T inhibition of proliferation (IC50)
MCF10A = test: Cell proliferation (CellTiter-Glo, 72 hour), MCF10A; type: cell-based; details: Homo sapiens, MCF-10A, breast cancer cell lines table, read-out: MCF10A inhibition of proliferation (IC50)
SK-ES-1 = test: Cell proliferation (CellTiter-Glo, 72 hour), SK-ES-1; type: cell-based; details: Homo sapiens, SK-ES1, Ewing's sarcoma cell line, read-out: SK-ES-1 inhibition of proliferation (IC50)
MNNG-HOS Cl #5 = test: Cell proliferation (CellTiter-Glo, 72 hour), MNNG-HOS Cl #5; type: cell-based; details: osteosarcoma cell line, read-out: MNNG-HOS Cl#5 inhibition of proliferation (IC50)
RD-ES = test: Cell proliferation (CellTiter-Glo, 72 hour), RD-ES; type: cell-based; details: Ewing's sarcoma cell line, read-out: RD-ES inhibition of proliferation (IC50)
hTERT-HME1 = test: Cell proliferation (CellTiter-Glo, 72 hour), hTERT-HME1; type: cell-based; details: breast cancer cell lines table, read-out: hTERT-HME1 inhibition of proliferation (IC50)
SKBR3 = test: Cell proliferation (CellTiter-Glo, 72 hour), SKBR3; type: cell-based; details: Homo sapiens, SK-BR-3, breast cancer cell line, read-out: SKBR3 inhibition of proliferation (IC50)
THP-1 = test: Cell proliferation (CellTiter-Glo, 72 hour), THP-1; type: cell-based; details: Homo sapiens, blood cancer cell line, read-out: THP-1 inhibition of proliferation (IC50)
A673 = test: Cell proliferation (CellTiter-Glo, 72 hour), A673; type: cell-based; details: Homo sapiens, Ewing's sarcoma cell line, read-out: A673 inhibition of proliferation (IC50)
Hs863T = test: Cell proliferation (CellTiter-Glo, 72 hour), Hs863T; type: cell-based; details: Ewing's sarcoma cell line, read-out: Hs863T inhibition of proliferation (IC50)

T3 sequence (P50613 whole entry): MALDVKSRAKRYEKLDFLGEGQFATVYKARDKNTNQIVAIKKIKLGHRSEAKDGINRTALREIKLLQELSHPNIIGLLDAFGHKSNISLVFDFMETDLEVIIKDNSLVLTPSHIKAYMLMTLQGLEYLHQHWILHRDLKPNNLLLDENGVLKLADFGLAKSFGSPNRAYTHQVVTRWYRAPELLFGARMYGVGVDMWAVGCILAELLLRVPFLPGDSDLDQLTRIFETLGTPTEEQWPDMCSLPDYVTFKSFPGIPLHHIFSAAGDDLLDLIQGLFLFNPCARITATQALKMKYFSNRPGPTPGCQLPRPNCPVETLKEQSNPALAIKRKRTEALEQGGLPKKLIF
T3 sequence (P51946 whole entry partner): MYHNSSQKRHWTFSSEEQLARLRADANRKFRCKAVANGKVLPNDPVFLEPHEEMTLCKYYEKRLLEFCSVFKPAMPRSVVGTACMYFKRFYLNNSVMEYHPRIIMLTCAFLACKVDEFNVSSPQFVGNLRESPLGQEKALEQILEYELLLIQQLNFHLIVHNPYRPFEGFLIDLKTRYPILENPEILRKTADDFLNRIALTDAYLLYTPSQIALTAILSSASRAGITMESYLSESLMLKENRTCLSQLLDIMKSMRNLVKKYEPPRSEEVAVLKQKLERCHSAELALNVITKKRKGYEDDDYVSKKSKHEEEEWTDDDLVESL
T3 sequence (P51948 whole entry partner): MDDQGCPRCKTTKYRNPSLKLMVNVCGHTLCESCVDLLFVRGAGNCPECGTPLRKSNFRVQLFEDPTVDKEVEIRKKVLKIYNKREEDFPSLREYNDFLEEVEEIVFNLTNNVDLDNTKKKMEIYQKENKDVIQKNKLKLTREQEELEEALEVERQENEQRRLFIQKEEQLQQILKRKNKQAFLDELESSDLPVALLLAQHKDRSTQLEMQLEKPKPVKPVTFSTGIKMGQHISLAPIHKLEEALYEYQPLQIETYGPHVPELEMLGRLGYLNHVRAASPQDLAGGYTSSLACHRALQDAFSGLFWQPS
T2 sequence (P49336 whole entry): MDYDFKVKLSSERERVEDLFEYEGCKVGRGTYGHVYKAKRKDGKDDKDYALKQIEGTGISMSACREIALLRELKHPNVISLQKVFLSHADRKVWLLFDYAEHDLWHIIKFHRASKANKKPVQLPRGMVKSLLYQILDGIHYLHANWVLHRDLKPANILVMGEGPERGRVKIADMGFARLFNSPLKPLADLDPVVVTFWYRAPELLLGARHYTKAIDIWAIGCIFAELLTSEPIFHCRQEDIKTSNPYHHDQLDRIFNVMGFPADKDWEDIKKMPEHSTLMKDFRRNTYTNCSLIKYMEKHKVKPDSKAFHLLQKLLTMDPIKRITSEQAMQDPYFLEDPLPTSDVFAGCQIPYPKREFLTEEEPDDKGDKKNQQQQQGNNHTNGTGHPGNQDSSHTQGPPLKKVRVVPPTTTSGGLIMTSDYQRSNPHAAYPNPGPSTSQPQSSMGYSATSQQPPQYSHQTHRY
T2 sequence (P24863 whole entry partner): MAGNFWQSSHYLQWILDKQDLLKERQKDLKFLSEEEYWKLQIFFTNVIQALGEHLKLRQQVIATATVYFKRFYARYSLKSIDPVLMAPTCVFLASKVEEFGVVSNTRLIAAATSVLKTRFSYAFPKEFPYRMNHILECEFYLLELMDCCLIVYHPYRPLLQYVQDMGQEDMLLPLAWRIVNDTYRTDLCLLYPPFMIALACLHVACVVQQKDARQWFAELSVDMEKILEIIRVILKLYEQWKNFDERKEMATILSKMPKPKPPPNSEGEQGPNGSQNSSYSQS
Sequence of CDK5/p25 (Q00535 whole entry): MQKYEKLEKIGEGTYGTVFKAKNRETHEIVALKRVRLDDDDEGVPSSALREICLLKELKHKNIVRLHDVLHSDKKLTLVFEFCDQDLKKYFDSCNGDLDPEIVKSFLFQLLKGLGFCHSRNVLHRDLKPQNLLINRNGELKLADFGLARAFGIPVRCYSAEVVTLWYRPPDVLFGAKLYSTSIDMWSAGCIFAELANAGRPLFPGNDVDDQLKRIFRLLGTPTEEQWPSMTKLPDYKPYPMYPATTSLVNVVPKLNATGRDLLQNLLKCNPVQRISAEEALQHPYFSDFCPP
Sequence of CDK5/p25 (Q15078 99-307 partner limits assumed): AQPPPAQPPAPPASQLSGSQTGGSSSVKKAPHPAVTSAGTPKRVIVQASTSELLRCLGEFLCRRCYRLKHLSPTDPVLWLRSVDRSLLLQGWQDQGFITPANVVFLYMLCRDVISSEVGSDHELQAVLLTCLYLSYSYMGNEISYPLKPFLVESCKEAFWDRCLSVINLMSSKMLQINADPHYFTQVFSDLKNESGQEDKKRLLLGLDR
Sequence of CDK9/cyclin T1 (P50750 whole entry): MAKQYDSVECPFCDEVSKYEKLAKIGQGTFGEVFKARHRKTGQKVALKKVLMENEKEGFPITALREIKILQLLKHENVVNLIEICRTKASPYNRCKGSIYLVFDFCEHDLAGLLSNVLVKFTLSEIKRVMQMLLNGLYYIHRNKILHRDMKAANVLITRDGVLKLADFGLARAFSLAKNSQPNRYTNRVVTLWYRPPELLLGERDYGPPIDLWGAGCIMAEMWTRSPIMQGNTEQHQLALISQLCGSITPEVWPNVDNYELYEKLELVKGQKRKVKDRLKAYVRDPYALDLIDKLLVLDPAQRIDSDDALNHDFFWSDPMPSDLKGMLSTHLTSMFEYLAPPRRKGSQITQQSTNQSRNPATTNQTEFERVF
Sequence of CDK9/cyclin T1 (O60563 whole entry partner): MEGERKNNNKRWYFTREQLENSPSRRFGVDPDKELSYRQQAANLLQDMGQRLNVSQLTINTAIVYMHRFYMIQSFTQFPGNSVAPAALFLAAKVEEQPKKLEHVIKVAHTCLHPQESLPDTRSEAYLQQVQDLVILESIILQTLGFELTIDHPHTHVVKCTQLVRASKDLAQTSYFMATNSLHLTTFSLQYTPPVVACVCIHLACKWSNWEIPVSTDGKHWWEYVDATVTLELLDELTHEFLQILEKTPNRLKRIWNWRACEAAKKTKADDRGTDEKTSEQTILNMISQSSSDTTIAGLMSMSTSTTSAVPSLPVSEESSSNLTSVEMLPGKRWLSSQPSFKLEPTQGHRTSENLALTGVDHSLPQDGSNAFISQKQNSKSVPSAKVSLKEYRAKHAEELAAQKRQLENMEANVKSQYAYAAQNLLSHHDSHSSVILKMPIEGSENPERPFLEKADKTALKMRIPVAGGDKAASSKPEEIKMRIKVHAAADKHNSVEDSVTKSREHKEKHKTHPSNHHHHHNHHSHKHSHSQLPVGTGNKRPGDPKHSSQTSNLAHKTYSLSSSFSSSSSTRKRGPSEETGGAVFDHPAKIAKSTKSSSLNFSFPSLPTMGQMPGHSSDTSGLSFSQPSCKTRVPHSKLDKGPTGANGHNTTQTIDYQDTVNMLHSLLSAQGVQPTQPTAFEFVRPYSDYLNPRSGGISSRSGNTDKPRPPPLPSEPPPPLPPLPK
Sequence of CDK9/cyclin K (P50750 whole entry): as the sequence (P50750 whole entry) above
Sequence of CDK9/cyclin K (O75909 whole entry partner): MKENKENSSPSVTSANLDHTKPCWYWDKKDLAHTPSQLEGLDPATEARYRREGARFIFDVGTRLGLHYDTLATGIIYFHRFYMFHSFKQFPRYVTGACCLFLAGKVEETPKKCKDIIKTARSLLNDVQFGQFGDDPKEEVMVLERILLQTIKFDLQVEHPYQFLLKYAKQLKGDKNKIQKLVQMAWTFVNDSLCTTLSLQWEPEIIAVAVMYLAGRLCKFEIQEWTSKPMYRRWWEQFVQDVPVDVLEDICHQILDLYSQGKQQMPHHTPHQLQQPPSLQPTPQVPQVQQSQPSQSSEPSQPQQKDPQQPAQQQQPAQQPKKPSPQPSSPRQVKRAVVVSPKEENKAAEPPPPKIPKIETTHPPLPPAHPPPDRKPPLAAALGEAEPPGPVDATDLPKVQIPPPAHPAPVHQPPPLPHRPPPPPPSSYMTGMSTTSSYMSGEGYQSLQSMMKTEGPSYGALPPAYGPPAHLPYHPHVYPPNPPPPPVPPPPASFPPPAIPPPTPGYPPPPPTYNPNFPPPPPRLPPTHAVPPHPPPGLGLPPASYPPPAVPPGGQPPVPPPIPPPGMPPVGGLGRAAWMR

IC50 (CDK2): > 1000 nM
IC50 (CDK5/p25): > 1000 nM
IC50 (CDK8): 100 to 1000 nM
IC50 (CDK9/cyclin K): 100 to 1000 nM
IC50 (CDK9/cyclin T1): 100 to 1000 nM
IC50 (CDK7; Table 1C, co-factors cyclin H and MNAT1, read-out: CDK7 IC50): < 100 nM
IC50 (CDK7; Table 2, co-factors cyclin H and MNAT1, read-out: CDK7 (calculated IC50)): < 100 nM
SMILES: CN(C)C/C=C/C(=O)Nc1ccc(C(=O)NC2CCCC(Nc3ncc(Cl)c(-c4c[nH]c5ccccc45)n3)C2)cc1 (stereo not shown) [Compound 100, (E)-N-(3-((5-chloro-4-(1H-indol-3-yl)pyrimidin-2-yl)amino)cyclohexyl)-4-(4-(dimethylamino)but-2-enamido)benzamide]

IC50 (MV4-11): < 500 nM
IC50 (RS4-11): < 500 nM
IC50 (MCF7): 500 to 5000 nM
IC50 (T47D): > 5000 nM
IC50 (MDA-MB231): < 500 nM
IC50 (HL60): < 500 nM
IC50 (SK-ES-1): < 500 nM
IC50 (SKBR3): < 500 nM
IC50 (THP-1): < 500 nM
SMILES: CN1CC[C@H](c2c(O)cc(O)c3c(=O)cc(-c4ccccc4Cl)oc23)[C@H](O)C1 [Flavopiridol, flavopiridol, reference compound]
IC50 (143B): 500 to 5000 nM
IC50 (SAOS): < 500 nM
IC50 (Hs822T): > 5000 nM
IC50 (MCF10A): < 500 nM
IC50 (MNNG-HOS Cl #5): 500 to 5000 nM
IC50 (RD-ES): < 500 nM
IC50 (hTERT-HME1): < 500 nM
IC50 (A673): < 500 nM
IC50 (Hs863T): > 5000 nM
